Where “and” joins values, the source holds several entries; their conditions need not be identical. Equal values may be shown once.
Assays:
[1] = tested on: ICR male mice; experiment: aspirin-induced gastric ulcer test in ICR mice (ulcer area, ulcer index, cure rate, mucosal ulcer pathology); assay type: in vivo; set-up: key to Mucosal ulcer (pathological indicator, score per mouse): Grade 0 represents no ulcers occurred in normal tissue; Grade 1 represents less than ⅓ of superficial ulcer lesions in gastric mucosa; Grade 2 represents about ½ of superficial to middle ulcer lesions in gastric mucosa; Grade 3 represents about ⅔ of superficial to deep ulcer lesions in gastric mucosa; grade 4 represents gastric mucosal epithelial full-thickness ulcer and the lesion penetrates 3/3 of the muscle layer
Method: A total of 24 ICR male mice purchased from BioLASCO (Lesco Biotechnology) were used as the experimental animals, each about 25 grams. The mice were kept in a general mouse cage, the room temperature was maintained at 22±3° C., the humidity was 55±15%, and the light and darkness were regularly 12 hours (12 hr light-dark cycle). Feed and sterile reverse osmosis water was allowed to be eaten by mice freely. Newly imported animals need to be observed for 3-5 days to ensure that there is no abnormality before testing. Before the experiment, the ICR mice were randomly grouped and caged, and each ICR mouse was marked with an ear number for identification and recording.
(§1) 24 mice were divided into a blank control group, a negative control group, a positive control group and a lactic acid bacteria test group, and there were 6 mice in each group. The mice were administered once a day for 39 consecutive days. The blank control group and the negative control group were given drinking water, the positive control group was given 20 mg/kg Omeprazole, and the lactic acid bacteria test group was given GKD7 and GKA4 freeze-dried powder, each 10.2 mg/kg/day. On day 29, 500 mg/kg aspirin was administered to the negative control group, positive control group and lactic acid bacteria test group to induce gastric ulcer (the blank control group was not administered) for 10 days (D29-D39), and finally the mice were sacrificed on D40 and performed various analyses.
(§2) The body weight of the mice was recorded every week, and after 39 consecutive days of administration, the mice were sacrificed with a high dose of Sutai 50 on the 40th day. The appearance, stomach tissues and organs of the mice were observed and made records.
Ulcer area statistics: ImageJ software was utilized to circle the ulcer focus of gastric tissue to calculate the gastric ulcer focus area of each ICR mouse. Each ulcer focus can get different scores according to the size of the ulcer (see the table below):
After each ulcer focus score is obtained, the application calculates the ulcer index of the mouse according to the following formula 1, and the higher the ulcer index, the more severe the ulcer.
If the experimental group mice (positive control group, lactic acid bacteria test group) are compared with the negative control group mice and the area of gastric ulcer (ulcer index) is reduced, it means that the experimental group produces a healing effect. Dividing the ulcer index of the experimental group by the ulcer index of the negative control group obtains the ulcer improvement rate, which is then subtracted from 1 to get the healing rate (cure rate) compared with the negative control group. The calculation method is shown as the following formula 2: […]

[2] = body weight change of mice during the test; assay type: in vivo; settings: between groups in the same period, p>0.05
Method: as §1, §2

Question: For `COc1ccc2[nH]c([S+]([O-])Cc3ncc(C)c(OC)c3C)nc2c1` (centres unmarked) [Omeprazole], which ulcer area ([1]; ICR mice, once daily for 39 days, 500 mg/kg aspirin D29-D39, sacrificed D40, 6 mice per group) is on record?
Answer: 7.12±2.15 mm^2

Question: What about the ulcer index ([1]; ICR mice, once daily for 39 days, 500 mg/kg aspirin D29-D39, formula 1, higher index = more severe ulcer) of the same molecule?
Answer: 2.57±0.67

Question: What about the “Cure rate (%)” value ([1]; formula 2: 1 minus ulcer index of group / ulcer index of negative control group) of the same molecule?
Answer: 53.25%

Question: And the “Mucosal ulcer (pathological indicator, score per mouse)” value ([1]; stomach histopathology, individual mice, grade 0-4, higher score = more serious damage, listed as Positive control group)?
Answer: 0 and 1

Question: And the “body weight of mice during the test” value [2]?
Answer: no significant difference

— patent US20240165170A1, “USE OF LACTIC ACID BACTERIUM SET FOR PREVENTING OR TREATING NSAID-INDUCED GASTRIC ULCER” (GRAPE KING BIO LTD., priority 2022, published 2024)
